Measured values: PubChem BioAssay (NCI)
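Step 1: Grow cells in 96-well plates. Step 2: Expose to compound for 48 hours at 5 concentrations. Step 3: Interpolate endpoints linearly; if unreached, use highest concentration. GI50 is the concentration that inhibits growth by half. Definition used: TGI = concentration required for complete inhibition of growth.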

What was measured:
Assay in all cases: NCI tumour cell line growth inhibition, 48 h; in the data active means GI50 below about 0.43 µM; inactive means the rest
SK-MEL-28 melanoma = system: SK-MEL-28 melanoma
BT-549 breast = system: BT-549 breast
SR leukemia = system: SR leukemia
HS 578T breast = system: HS 578T breast
EKVX NSCLC = system: EKVX NSCLC
UACC-257 melanoma = system: UACC-257 melanoma
OVCAR-8 ovarian = system: OVCAR-8 ovarian
RXF 393 renal = system: RXF 393 renal
KM12 colon = system: KM12 colon
HOP-62 NSCLC = system: HOP-62 NSCLC
HCT-15 colon = system: HCT-15 colon
RPMI-8226 leukemia = system: RPMI-8226 leukemia
MALME-3M melanoma = system: MALME-3M melanoma
SF-295 CNS = system: SF-295 CNS
786-0 renal = system: 786-0 renal
SN12C renal = system: SN12C renal
SW-620 colon = system: SW-620 colon
SF-268 CNS = system: SF-268 CNS
K-562 leukemia = system: K-562 leukemia
SK-MEL-2 melanoma = system: SK-MEL-2 melanoma
M14 melanoma = system: M14 melanoma
DU-145 prostate = system: DU-145 prostate
UO-31 renal = system: UO-31 renal
OVCAR-4 ovarian = system: OVCAR-4 ovarian
SNB-75 CNS = system: SNB-75 CNS
HOP-92 NSCLC = system: HOP-92 NSCLC
TK-10 renal = system: TK-10 renal
PC-3 prostate = system: PC-3 prostate
HCC-2998 colon = system: HCC-2998 colon
MDA-MB-435 = system: MDA-MB-435
SK-MEL-5 melanoma = system: SK-MEL-5 melanoma
IGROV1 ovarian = system: IGROV1 ovarian
HL-60(TB) leukemia = system: HL-60(TB) leukemia
NCI-H23 lung = system: NCI-H23 lung
SK-OV-3 ovarian = system: SK-OV-3 ovarian
T-47D breast = system: T-47D breast
SF-539 CNS = system: SF-539 CNS
OVCAR-3 ovarian = system: OVCAR-3 ovarian
CCRF-CEM leukemia = system: CCRF-CEM leukemia
MDA-MB-231 breast = system: MDA-MB-231 breast
NCI-H522 lung = system: NCI-H522 lung
NCI-H460 lung = system: NCI-H460 lung
COLO 205 colon = system: COLO 205 colon
HCT-116 colon = system: HCT-116 colon
NCI/ADR-RES ovarian = system: NCI/ADR-RES ovarian
A549 NSCLC = system: A549 NSCLC
U251 CNS = system: U251 CNS
MCF7 breast = system: MCF7 breast
UACC-62 melanoma = system: UACC-62 melanoma
ACHN renal = system: ACHN renal
LOX IMVI melanoma = system: LOX IMVI melanoma
A498 renal = system: A498 renal
MOLT-4 leukemia = system: MOLT-4 leukemia
OVCAR-5 ovarian = system: OVCAR-5 ovarian
SNB-19 CNS = system: SNB-19 CNS
CAKI-1 renal = system: CAKI-1 renal
NCI-H226 lung = system: NCI-H226 lung

O=c1ncc(I)c[nH]1
> 100 µM: TGI (SK-MEL-28 melanoma) | TGI (BT-549 breast) | TGI (SR leukemia) | TGI (HS 578T breast) | TGI (EKVX NSCLC) | TGI (UACC-257 melanoma) | TGI (OVCAR-8 ovarian) | TGI (RXF 393 renal) | TGI (KM12 colon) | TGI (HOP-62 NSCLC) | TGI (HCT-15 colon) | TGI (RPMI-8226 leukemia) | TGI (MALME-3M melanoma) | TGI (SF-295 CNS) | TGI (786-0 renal) | TGI (SN12C renal) | TGI (SW-620 colon) | TGI (SF-268 CNS) | TGI (K-562 leukemia) | TGI (SK-MEL-2 melanoma) | TGI (M14 melanoma) | TGI (DU-145 prostate) | TGI (UO-31 renal) | TGI (OVCAR-4 ovarian) | TGI (SNB-75 CNS) | TGI (HOP-92 NSCLC) | TGI (TK-10 renal) | TGI (PC-3 prostate) | TGI (HCC-2998 colon) | TGI (MDA-MB-435) | TGI (SK-MEL-5 melanoma) | TGI (IGROV1 ovarian) | TGI (HL-60(TB) leukemia) | TGI (NCI-H23 lung) | TGI (SK-OV-3 ovarian) | TGI (T-47D breast) | TGI (SF-539 CNS) | TGI (OVCAR-3 ovarian) | TGI (CCRF-CEM leukemia) | TGI (MDA-MB-231 breast) | TGI (NCI-H522 lung) | TGI (NCI-H460 lung) | TGI (COLO 205 colon) | TGI (HCT-116 colon) | TGI (NCI/ADR-RES ovarian) | TGI (A549 NSCLC) | TGI (U251 CNS) | TGI (MCF7 breast) | TGI (UACC-62 melanoma) | TGI (ACHN renal) | TGI (LOX IMVI melanoma) | TGI (A498 renal) | TGI (MOLT-4 leukemia) | TGI (OVCAR-5 ovarian) | TGI (SNB-19 CNS) | TGI (CAKI-1 renal) | TGI (NCI-H226 lung)
inactive: GI50 (SK-MEL-28 melanoma) > 100 µM | GI50 (BT-549 breast) > 100 µM | GI50 (SR leukemia) > 100 µM | GI50 (HS 578T breast) > 100 µM | GI50 (EKVX NSCLC) > 100 µM | GI50 (UACC-257 melanoma) > 100 µM | GI50 (OVCAR-8 ovarian) > 100 µM | GI50 (RXF 393 renal) > 100 µM | GI50 (KM12 colon) > 100 µM | GI50 (HOP-62 NSCLC) > 100 µM | GI50 (HCT-15 colon) > 100 µM | GI50 (RPMI-8226 leukemia) > 100 µM | GI50 (MALME-3M melanoma) > 100 µM | GI50 (SF-295 CNS) > 100 µM | GI50 (786-0 renal) > 100 µM | GI50 (SN12C renal) > 100 µM | GI50 (SW-620 colon) > 100 µM | GI50 (SF-268 CNS) > 100 µM | GI50 (K-562 leukemia) > 100 µM | GI50 (SK-MEL-2 melanoma) > 100 µM | GI50 (M14 melanoma) > 100 µM | GI50 (DU-145 prostate) > 100 µM | GI50 (UO-31 renal) > 100 µM | GI50 (OVCAR-4 ovarian) > 100 µM | GI50 (SNB-75 CNS) > 100 µM | GI50 (HOP-92 NSCLC) > 100 µM | GI50 (TK-10 renal) > 100 µM | GI50 (PC-3 prostate) > 100 µM | GI50 (HCC-2998 colon) > 100 µM | GI50 (MDA-MB-435) > 100 µM | GI50 (SK-MEL-5 melanoma) > 100 µM | GI50 (IGROV1 ovarian) > 100 µM | GI50 (HL-60(TB) leukemia) > 100 µM | GI50 (NCI-H23 lung) > 100 µM | GI50 (SK-OV-3 ovarian) > 100 µM | GI50 (T-47D breast) > 100 µM | GI50 (SF-539 CNS) > 100 µM | GI50 (OVCAR-3 ovarian) > 100 µM | GI50 (CCRF-CEM leukemia) > 100 µM | GI50 (MDA-MB-231 breast) > 100 µM | GI50 (NCI-H522 lung) > 100 µM | GI50 (NCI-H460 lung) > 100 µM | GI50 (COLO 205 colon) > 100 µM | GI50 (HCT-116 colon) > 100 µM | GI50 (NCI/ADR-RES ovarian) > 100 µM | GI50 (A549 NSCLC) > 100 µM | GI50 (U251 CNS) > 100 µM | GI50 (MCF7 breast) > 100 µM | GI50 (UACC-62 melanoma) > 100 µM | GI50 (ACHN renal) > 100 µM | GI50 (LOX IMVI melanoma) > 100 µM | GI50 (A498 renal) > 100 µM | GI50 (MOLT-4 leukemia) > 100 µM | GI50 (OVCAR-5 ovarian) > 100 µM | GI50 (SNB-19 CNS) > 100 µM | GI50 (CAKI-1 renal) > 100 µM | GI50 (NCI-H226 lung) > 100 µM
